{
  "source": "paper PMC4654502",
  "about": "“Early Gelatinase Activity Is Not a Determinant of Long-Term Recovery after Traumatic Brain Injury in the Immature Mouse” (PLoS ONE, 2015)",
  "key": {"[1]": {"tested_on": "MMP-9", "assay": "Inhibition constant for MMP-9", "type": "biochemical", "details": "more potent than the parent compound"}, "[2]": {"assay": "Pharmacokinetics and brain distribution after multiple-dose s.c. administration", "type": "in vivo, p21 naïve male C57Bl/6J mice", "protocol": "Dosing route and concentration were similar to what we proposed to do for treatment for the current study. Terminal blood samples were collected in heparinized tubes through the posterior vena cava and centrifuged to obtain plasma (n = 3 per time point). Whole brain samples were harvested after transcardial perfusion with saline, immediately flash frozen in liquid nitrogen, and stored at -80°C until analysis."}, "[3]": {"tested_on": "controlled cortical impact TBI at p21", "assay": "Morris water maze at adulthood after TBI at p21", "type": "in vivo, male C57Bl/6J mice", "details": "25 mg/kg s.c. at 2, 4, 24, 48 h post-injury", "protocol": "The controlled cortical impact model of TBI was used as previously described. TBI to the p21 mouse approximates a toddler-aged child, based upon the structural, biochemical and behavioral characteristics of this age. Pups were anaesthetized with 1.25% 2,2,2-tribromoethanol (Avertin; Sigma-Aldrich, St. Louis, MO) in isotonic saline (i.p. bolus at 0.02 mL/g body weight). After craniotomy, mice were subjected to a controlled cortical impact at 4.5 m/s velocity and 1.73 mm depth of penetration, for a sustained depression of 150 ms, using a 3.0 mm convex impactor tip. Mice were maintained on a water-circulating heating pad throughout surgery and recovery. Following impact, the scalp was closed with sutures and each animal administered 0.5 ml of isotonic saline subcutaneously (s.c.) to prevent post-operative dehydration. Sham-operated mice underwent identical surgical procedures, including craniotomy, without receiving the cortical impact. All mice were closely monitored for 1–2 hours post-surgery until return of the righting reflex and full mobilization. Mice were then returned to group-housing, and weighed post-surgery at days 1, 3, and weekly thereafter till the end of the study.\nThe treatment regime was based upon several considerations. […] Thirdly, we limited treatment to a period of 48 h post-injury in order to minimize potential off-target effects on ongoing brain development processes at this time, given the known roles that these gelatinases play in postnatal synaptic maturation. For acute studies (gelatin zymography and histology) animals were euthanized at 4 hours and for in situ zymography, they were euthanized 1 hour after the last injection. For long-term studies (behavioral and cognitive assessments and histology) animals were euthanized at ~2 months post-injury. Euthanasia was by overdose with 2.5% Avertin i.p. followed by decapitation or cardiac transperfusion as described below.\nMice were randomized for behavior testing and all behavior testing was performed by individuals blinded to injury and treatment. Behavioral and cognitive testing of brain injured mice and sham controls commenced at 2 months post-injury (~ 3 months of age; n = 15/group). An extensive battery of behavioral assessments was performed in the following order: open field, rotarod, elevated plus maze, three-chamber social task, resident-intruder, and Morris water maze (MWM). […]\nThe MWM was used to assess spatial learning and memory as previously described, using a 140 cm-diameter circular pool filled with opaque water (22°C). […] Movements were tracked with an overhead mounted video camera interfaced with Noldus EthoVision software (Noldus IT, Tacoma, WA), for quantification of the cumulative distance to and latency to locate the platform, as well as swim velocity (cm/s). […]"}, "[4]": {"target": "MMP-9", "details": "cited from earlier work"}, "[5]": {"tested_on": "MMP-9 or MMP-2", "details": "compared with SB-3CT; cited from earlier work"}, "[6]": {"details": "25 mg/kg s.c. at 0, 2 and 24 h, p21 mice"}, "[7]": {"details": "0.5 h after final dose, 25 mg/kg s.c. at 0, 2 and 24 h, p21 mice"}, "[8]": {"details": "1 h after final dose, 25 mg/kg s.c. at 0, 2 and 24 h, p21 mice"}, "[9]": {"details": "2 h after final dose, 25 mg/kg s.c. at 0, 2 and 24 h, p21 mice"}},
  "note": "Where “and” joins values, the source holds several entries; their conditions need not be identical. Equal entries are not always repeated.",
  "data": [
    {"compound": "O=S(=O)(CC1CS1)c1ccc(Oc2ccc(O)cc2)cc1", "note": "(stereo not shown) [p-OH SB-3CT]", "values": [
      {"measurement": "potency at inhibiting MMP-9 relative to parent compound SB-3CT", "setting": "[1]", "value": 2.5, "unit": "fold"},
      {"measurement": "AUC 0-last, brain", "setting": "[2]; [6]", "value": 189, "unit": "pmol·min/mg"},
      {"measurement": "AUC 0-last, plasma", "setting": "[2]; [6]", "value": 273, "unit": "µM·min"},
      {"measurement": "AUC 0-∞, brain", "setting": "[2]; [6]", "value": 191, "unit": "pmol·min/mg"},
      {"measurement": "AUC 0-∞, plasma", "setting": "[2]; [6]", "value": 276, "unit": "µM·min"},
      {"measurement": "Brain AUC /Plasma AUC", "setting": "[2]; [6]", "value": 0.693},
      {"measurement": "Brain concentration", "setting": "[2]; [7]", "value": "4.67 ± 1.60", "unit": "pmol/mg tissue"},
      {"measurement": "Plasma concentration", "setting": "[2]; [7]", "value": "6490 ± 4490", "unit": "nM"},
      {"measurement": "peak brain level expressed as concentration", "setting": "[2]; 30 min after final dose, assuming a density of 1 g/mL", "value": 4.67, "unit": "µM"},
      {"measurement": "Brain concentration", "setting": "[2]; [8]", "value": "0.905 ± 1.09", "unit": "pmol/mg tissue"},
      {"measurement": "Plasma concentration", "setting": "[2]; [8]", "value": "1660 ± 1820", "unit": "nM"},
      {"measurement": "Brain concentration", "setting": "[2]; [9]", "value": "0.0772 ± 0.0211", "unit": "pmol/mg tissue"},
      {"measurement": "Plasma concentration", "setting": "[2]; [9]", "value": "122 ± 76.2", "unit": "nM"},
      {"measurement": "Brain concentration", "setting": "[2]; 4 h after final dose, 25 mg/kg s.c. at 0, 2 and 24 h, p21 mice, 25 mg/kg", "value": "0.0209 ± 0.0058 pmol/mg tissue and 0.0209 ± 0.00578 pmol/mg tissue"},
      {"measurement": "time to peak concentration in brain", "setting": "[2]; s.c., after the final dose", "value": 30, "unit": "min"},
      {"measurement": "time to peak concentration in plasma", "setting": "[2]; s.c., after the final dose", "value": 30, "unit": "min"},
      {"measurement": "MWM probe trials, effect of injury on spatial memory retention", "setting": "[3]; four probe trials", "value": "not rescued by acute inhibition of gelatinases with p-OH SB-3CT"},
      {"measurement": "MWM cumulative distance to the target, visible and hidden sessions", "setting": "[3]; tested at adulthood", "value": "no effect of p-OH SB-3CT treatment"},
      {"measurement": "MWM latency to reach the platform, visible and hidden platform sessions", "setting": "[3]; tested at adulthood", "value": "did not modify this injury-related behavior"},
      {"measurement": "MWM swim velocity during visible platform trials", "setting": "[3]; tested at adulthood", "value": "not influenced"},
      {"measurement": "Ki", "setting": "[4]", "value": "160 ± 80", "unit": "nM"},
      {"measurement": "residence time (how long the drug is bound to the target MMPs)", "setting": "[5]", "value": "considerably longer than that of SB-3CT"}
    ]}
  ]
}
